Results published in patent publication US20150272922A1, “Compounds for Reducing Glucocorticoids, and Methods of Treatment Thereof” (BIONICHE LIFE SCIENCES INC., priority 2012, published 2015).
Converted amounts (≈) assume the structure as drawn. Read-outs that look alike come from different tables or passages of the source.

Tested on: trout head kidney tissue
Assay: Cortisol lowering activity in trout head kidney slice model (ACTH-stimulated cortisol release)
Assay type: cell-based, rainbow trout (Oncorhynchus mykiss)
Settings: for effect on cortisol production: 60 μg/ml, ACTH 1 U/ml; for EC50: Oncorhynchus mykiss; for concentration dependence of effect on cortisol production: ACTH 1 U/mL
Description: Head kidney tissue was isolated using a modified method as described by Conde-Sieira et al. (2013). Fish were anaesthetized with benzocaine (30-35 mg/L), blood was removed from the caudal vein using a 3 mL heparinized syringe and the fish euthanized by spinal transection. The vasculature was perfused through the post-cardinal vein with 40 mL of modified Hanks' medium (92.56 mM NaCl, 3.63 mM KCl, 0.55 mM MgSO4, 0.4 mM KH2PO4, 0.23 Na2HPO4, 7.5 mM Hepes, 2.81 mM NaHCO3, 0.85 mM CaCl2, 0.03% (w/v) bovine albumin serum) containing EGTA (1 mM final) adjusted to pH 7.64. The entire head kidney was removed from the trout and transferred to a 15 mL chilled glass petri dish containing modified Hanks' medium (pH 7.15). The tissue was weighed then transferred to a 35 mL chilled glass petri dish containing […] modified Hanks' medium per gram of tissue supplemented with MEM amino acid solution (50×; 2 mL/100 mL medium; Sigma—M5550), MEM non-essential amino acid solution (100×; 1 mL/100 mL medium; Sigma˜M7145) and Antibiotic-Antimycotic (100×; 1 mL/100 mL medium; Life Technologies˜15240). The tissue was chopped finely with a razor blade then separated further using a rubber policeman. The tissue was incubated at 13° C. with gentle agitation for 1.5 h to ensure basal levels of cortisol release. Optimal incubation times were determined in previous experiments (Conde-Sieira et al., 2013).
Following the 1.5 h pre-incubation, tissue was placed in 48-well culture plates (approximately 25 mg tissue pre well) along with a final volume of 250 μL modified Hanks' medium. There were two wells for each compound treatment; one control (−ACTH) and one stimulated (+ACTH) that were conducted simultaneously. Tissues were incubated with compounds of the disclosure (60 μg/mL) initiated at the same time as determined in previous experiments (Mullally et al., 2012) for 60 min at 13° C. with gentle agitation and stimulated with 1 U/mL ACTH (Sigma-Aldrich). The compounds were dissolved in ethanol and DMSO (final concentration of DMSO: 0.3% v/v, ethanol 1% v/v) by vortexing for 1 min and sonication for 30 s if the compound was not fully dissolved (determined by visual inspection). After incubation, tissue and supernatant were collected and transferred to pre-weighed 1.5 mL conical plastic tubes and centrifuged (14 000 RCF, 10 min). The supernatant was collected and transferred into a new 1.5 mL conical plastic tube and flash frozen in liquid nitrogen for subsequent cortisol assay. The mass of tissue for each sample was determined by weighing the remaining tissue in the pre-weighed tubes. Four control wells were prepared for each preparation: modified Hanks' medium, modified Hanks' medium plus ACTH (1 U/mL), DMSO/ethanol blank (0.3% v/v DMSO, 1% v/v ethanol) and DMSO/ethanol blank plus ACTH (1 U/mL).
Cortisol concentrations were assessed using a ^125I RIA kit (MP Biomedicals, Irvine, Calif., USA) as per the manufacturer's instructions and read using a Packard® Cobra™ Auto-Gamma Counter. Counts were normalized to tissue weights in each experimental well.
Data are presented as % change in ACTH-stimulated cortisol release relative to control preparation (modified Hanks' medium stimulated with ACTH) using GraphPad Prism software (GraphPad Software, Inc., La Jolla, Calif.). […] GraphPad Prism software (GraphPad Software, Inc., La Jolla, Calif.) was used to graph and calculate EC50 values by fitting a sigmoidal curve to the dose response data as well as linear regressions between Log P of compounds of the disclosure vs log cortisol responses.

[1] = read-out: calculated EC50, approximate (inhibition of cortisol production)
[2] = GraphPad Prism fit, n=3-7, FIG. 3, read-out: EC50, four parameter sigmoidal curve (ACTH-stimulated cortisol release)

| SMILES | effect on cortisol production | EC50 [1] | EC50 [2] | concentration dependence of effect on cortisol production (dose response) | EC50 (ACTH-stimulated cortisol release, dose response, FIG. 3, read-out: calculated EC50, approximate (inhibition of cortisol production)) |
| --- | --- | --- | --- | --- | --- |
| COC(=O)[C@]12CC[C@@H](C(C)O)C1C1CCC3[C@@]4(C)CC[C@H](O)C(C)(C)C4CC[C@@]3(C)[C@]1(C)CC2 (single isomer, unassigned) [Compound 1546] | lowered cortisol production | ~9 µg/mL (≈ 19 µM) | 9.5 µg/mL (≈ 20 µM) | – | – |
| CC(=O)[C@@H]1CC[C@]2(C(=O)O)CC[C@]3(C)[C@H](CC[C@@H]4[C@@]5(C)CC[C@H](O)C(C)(C)[C@@H]5CC[C@]43C)[C@@H]12 [Compound 1516, Platanic Acid] | lowered cortisol production | ~9 µg/mL (≈ 19.6 µM) | 9.4 µg/mL (≈ 20.5 µM) | inhibited cortisol production in a dose-dependent manner | – |
| C=C(C)[C@@H]1CC[C@]2(C(=O)OC)CC[C@]3(C)C(CCC4[C@@]5(C)C[C@@H](O)C(=O)C(C)(C)C5CC[C@]43C)C12 (stereo partly drawn) [Compound 1521, Methyl 2α-hydroxy betulonate] | lowered cortisol production | – | – | – | – |
| C=C(C)[C@@H]1CC[C@]2(/C=C/C(=O)OCC)CC[C@]3(C)C(CCC4[C@@]5(C)CC[C@H](O)C(C)(C)C5CC[C@]43C)C12 (some centres unmarked) [Compound 1529, Vinylogous ethyl betulinate] | lowered cortisol production | – | 116 µg/mL (≈ 227 µM) | – | – |
| COC(=O)[C@]12CC[C@@H](C)[C@H](C)[C@H]1C1=CCC3[C@@]4(C)C[C@@H](O)C(=O)C(C)(C)C4CC[C@@]3(C)[C@]1(C)CC2 (stereo partly drawn) [Compound 1537, Methyl 2α-hydroxy-3-oxo-urs-12-en-28-oate] | lowered cortisol production | – | 28.2 µg/mL (≈ 58.2 µM) | inhibited cortisol production in a dose-dependent manner | ~28 µg/mL (≈ 57.8 µM) |
